Target: T1, FXR ligand binding domain (Homo sapiens, UniProt Q96RI1)
T1 construct: made in house; host or cells: E. coli BL21 (pLysS)
T1 sequence (Q96RI1 193-472 isoform Q96RI1-2): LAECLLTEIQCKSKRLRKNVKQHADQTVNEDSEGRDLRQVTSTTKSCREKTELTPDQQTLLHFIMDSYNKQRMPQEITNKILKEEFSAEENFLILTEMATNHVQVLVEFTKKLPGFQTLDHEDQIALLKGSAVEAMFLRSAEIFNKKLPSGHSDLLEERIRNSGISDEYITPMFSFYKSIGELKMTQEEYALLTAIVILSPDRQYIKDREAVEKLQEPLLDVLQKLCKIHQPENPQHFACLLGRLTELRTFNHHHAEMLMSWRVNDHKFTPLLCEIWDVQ
Experiment: Radioligand Binding Assay (scintillation proximity radioligand displacement)
Settings: GST-FXR LBD fusion protein on SPA beads, test compound 6×10^−9 M to 2.5×10^−5 M
Protocol: The following tests were carried out in order to determine the activity of the compounds of formula (I). Background information on the binding assay can be found in: Nichols J S et al. “Development of a scintillation proximity assay for peroxisome proliferator-activated receptor gamma ligand binding domain”, (1998) Anal. Biochem. 257: 112-119.
Bacterial and mammalian expression vectors were constructed to produce glutathione-s-transferase (GST) and Gal4 DNA binding domain (GAL) proteins fused to the ligand binding domain (LBD) of human FXR (aa 193-473). To accomplish this, the portions of the sequences encoding the FXR LBD were amplified by polymerase chain reaction (PCR) from a full-length clone by PCR and then subcloned into the plasmid vectors. The final clone was verified by DNA sequence analysis.
The induction, expression, and subsequent purification of GST-LBD fusion protein was performed in E. coli strain BL21 (pLysS) cells by standard methods (Current Protocols in Molecular Biology, Wiley Press, ed. Ausubel et al.).
Radioligand Binding Assay
Binding of test substances to the FXR ligand binding domain was assessed in a radioligand displacement assay. The assay was performed in a buffer consisting of 50 mM Hepes, pH 7.4, 10 mM NaCl, 5 mM MgCl2, 0.01% CHAPS. For each reaction well in a 96-well plate, 40 nM of GST-FXR LBD fusion protein was bound to […] glutathione ytrium silicate SPA beads (PharmaciaAmersham) in a final volume of […] by shaking. A radioligand (e.g., 20 nM of 2,N-dicyclohexyl-2-[2-(2,4 dimethoxy-phenyl)-benzoimidazol-1-yl]-acetamide) and test compounds were added, and scintillation proximity counting was performed. All binding assays were performed in 96-well plates and the amount of bound ligand was measured on a Packard TopCount using OptiPlates (Packard). Dose response curves were performed within a range of test compound concentrations from 6×10^−9 M to 2.5×10^−5 M and IC50 values were calculated.

Compound | IC50 [nM]
O=C(O)COc1ccc(COc2cc(Cl)ccc2-c2nc3cc(F)c(F)cc3n2Cc2ccccc2)cc1 [Example 52, {4-[2-(1-Benzyl-5,6-difluoro-1H-benzoimidazol-2-yl)-5-chloro-phenoxymethyl]-phenoxy}-acetic acid] | 800
Fc1cc2nc(-c3ccc(Cl)cc3OCc3ccccc3Cl)n(Cc3cccc(Cl)c3)c2cc1F [Example 53, 1-(3-Chloro-benzyl)-2-[4-chloro-2-(2-chloro-benzyloxy)-phenyl]-5,6-difluoro-1H-benzoimidazole] | 1700
Fc1cc2nc(-c3ccc(Cl)cc3OCC3CCCC3)n(Cc3cccc(Cl)c3)c2cc1F [Example 54, 1-(3-Chloro-benzyl)-2-(4-chloro-2-cyclopentylmethoxy-phenyl)-5,6-difluoro-1H-benzoimidazole] | 1200
Fc1cc2nc(-c3ccc(Cl)cc3OCC3CC3)n(Cc3cccc(Cl)c3)c2cc1F [Example 55, 1-(3-Chloro-benzyl)-2-(4-chloro-2-cyclopropylmethoxy-phenyl)-5,6-difluoro-1H-benzoimidazole] | 2600
O=C(O)c1ccc(COc2cc(Cl)ccc2-c2nc3cc(F)c(F)cc3n2Cc2cccc(Cl)c2)cc1 [Example 56, 4-{5-Chloro-2-[1-(3-chloro-benzyl)-5,6-difluoro-1H-benzoimidazol-2-yl]-phenoxymethyl}-benzoic acid] | 500
O=C(O)COc1ccc(COc2cc(Cl)ccc2-c2nc3cc(F)c(F)cc3n2Cc2cccc(Cl)c2)cc1 [Example 57, (4-{5-Chloro-2-[1-(3-chloro-benzyl)-5,6-difluoro-1H-benzoimidazol-2-yl]-phenoxymethyl}-phenoxy)-acetic acid] | 200
O=C(O)CCc1ccc(Cn2c(-c3ccc(Cl)cc3OCc3ccccc3Cl)nc3cc(F)c(F)cc32)cc1 [Example 58, 3-(4-{2-[4-Chloro-2-(2-chloro-benzyloxy)-phenyl]-5,6-difluoro-benzoimidazol-1-ylmethyl}-phenyl)-propionic acid] | 30
O=C(O)CCc1ccc(Cn2c(-c3ccc(Cl)cc3OCC3CCCC3)nc3cc(F)c(F)cc32)cc1 [Example 59, 3-{4-[2-(4-Chloro-2-cyclopentylmethoxy-phenyl)-5,6-difluoro-benzoimidazol-1-ylmethyl]-phenyl}-propionic acid] | 300
O=C(O)CCc1ccc(Cn2c(-c3ccc(Cl)cc3OCC3CC3)nc3cc(F)c(F)cc32)cc1 [Example 60, 3-{4-[2-(4-Chloro-2-cyclopropylmethoxy-phenyl)-5,6-difluoro-benzoimidazol-1-ylmethyl]-phenyl}-propionic acid] | 1300
O=C(O)c1cccc(Cn2c(-c3ccc(Cl)cc3OCC3CCCC3)nc3cc(F)c(F)cc32)c1 [Example 61, 3-[2-(4-Chloro-2-cyclopentylmethoxy-phenyl)-5,6-difluoro-benzoimidazol-1-ylmethyl]-benzoic acid] | 500
O=C(O)c1ccc(Cn2c(-c3ccc(Cl)cc3OCC3CCCC3)nc3cc(F)c(F)cc32)cc1 [Example 62, 4-[2-(4-Chloro-2-cyclopentylmethoxy-phenyl)-5,6-difluoro-benzoimidazol-1-ylmethyl]-benzoic acid] | 400
O=C(O)Cc1ccc(Cn2c(-c3ccc(Cl)cc3OCC3CCCC3)nc3cc(F)c(F)cc32)cc1 [Example 63, {4-[2-(4-Chloro-2-cyclopentylmethoxy-phenyl)-5,6-difluoro-benzoimidazol-1-ylmethyl]-phenyl}-acetic acid] | 700
O=C(O)COc1ccc(Cn2c(-c3ccc(Cl)cc3OCC3CCCC3)nc3cc(F)c(F)cc32)cc1 [Example 64, {4-[2-(4-Chloro-2-cyclopentylmethoxy-phenyl)-5,6-difluoro-benzoimidazol-1-ylmethyl]-phenoxy}-acetic acid] | 200

The remaining lines, values ahead:

IC50 [nM] | Compound
3700 | O=C(O)CCCCCn1c(-c2ccc(Cl)cc2OCC2CCCC2)nc2cc(F)c(F)cc21 [Example 65, 6-[2-(4-Chloro-2-cyclopentylmethoxy-phenyl)-5,6-difluoro-benzoimidazol-1-yl]-hexanoic acid]
1800 | O=C(O)C1CCC(Cn2c(-c3ccc(Cl)cc3OCC3CCCC3)nc3cc(F)c(F)cc32)CC1 (centres unmarked) [Example 66, 4-[2-(4-Chloro-2-cyclopentylmethoxy-phenyl)-5,6-difluoro-benzoimidazol-1-ylmethyl]-cyclohexane carboxylic acid]
90 | Fc1cc2nc(-c3ccc(Cl)cc3OCC3CCCC3)n(Cc3cccc(-c4nnn[nH]4)c3)c2cc1F [Example 67, 2-(4-Chloro-2-cyclopentylmethoxy-phenyl)-5,6-difluoro-1-[3-(1H-tetrazol-5-yl)-benzyl]-1H-benzoimidazole]
40 | Fc1cc2nc(-c3ccc(Cl)cc3OCC3CCCC3)n(Cc3ccc(-c4nnn[nH]4)cc3)c2cc1F [Example 68, 2-(4-Chloro-2-cyclopentylmethoxy-phenyl)-5,6-difluoro-1-[4-(1H-tetrazol-5-yl)-benzyl]-1H-benzoimidazole]
80 | Fc1cc2nc(-c3ccc(Cl)cc3OCC3CCCC3)n(Cc3ccc(-c4nnn[nH]4)c(F)c3)c2cc1F [Example 69, 2-(4-Chloro-2-cyclopentylmethoxy-phenyl)-5,6-difluoro-1-[3-fluoro-4-(1H-tetrazol-5-yl)-benzyl]-1H-benzoimidazole]
10 | Fc1cc2nc(-c3ccc(Cl)cc3OCC3CCCC3)n(Cc3ccc(-c4nnn[nH]4)cc3F)c2cc1F [Example 70, 2-(4-Chloro-2-cyclopentylmethoxy-phenyl)-5,6-difluoro-1-[2-fluoro-4-(1H-tetrazol-5-yl)-benzyl]-1H-benzoimidazole]
1100 | COc1cc(Cl)ccc1-c1nc2cc(F)c(F)cc2n1Cc1ccc(-c2nnn[nH]2)cc1F [Example 71, 2-(4-Chloro-2-methoxy-phenyl)-5,6-difluoro-1-[2-fluoro-4-(1H-tetrazol-5-yl)-benzyl]-1H-benzoimidazole]
3600 | Fc1cc2nc(-c3ccc(Cl)cc3C#Cc3ccc(-c4nnn[nH]4)cc3)n(CC3CCCCC3)c2cc1F [Example 72, 2-{4-Chloro-2-[4-(1H-tetrazol-5-yl)-phenylethynyl]-phenyl}-1-cyclohexylmethyl-5,6-difluoro-1H-benzoimidazole]
10 | Fc1cc2nc(-c3ccc(Cl)cc3CCc3ccc(-c4nnn[nH]4)cc3)n(CC3CCCCC3)c2cc1F [Example 73, 2-(4-Chloro-2-{2-[4-(1H-tetrazol-5-yl)-phenyl]-ethyl}-phenyl)-1-cyclohexylmethyl-5,6-difluoro-1H-benzoimidazole]
30 | Clc1ccc(-c2nc3ccccc3n2CC2CCCCC2)c(CCc2ccc(-c3nnn[nH]3)cc2)c1 [Example 74, 2-(4-Chloro-2-{2-[4-(1H-tetrazol-5-yl)-phenyl]-ethyl}-phenyl)-1-cyclohexylmethyl-1H-benzoimidazole]
30 | O=C(O)c1ccc(CCc2cc(Cl)ccc2-c2nc3ccccc3n2CC2CCCCC2)cc1 [Example 75, 4-{2-[5-Chloro-2-(1-cyclohexylmethyl-1H-benzoimidazol-2-yl)-phenyl]-ethyl}-benzoic acid]
100 | Fc1cc2nc(-c3ccccc3CCc3ccc(-c4nnn[nH]4)cc3)n(CC3CCCCC3)c2cc1F [Example 76, 1-Cyclohexylmethyl-5,6-difluoro-2-(2-{2-[4-(1H-tetrazol-5-yl)-phenyl]-ethyl}-phenyl)-1H-benzoimidazole]
30 | O=C(O)c1ccc(CCc2ccccc2-c2nc3cc(F)c(F)cc3n2CC2CCCCC2)cc1 [Example 77, 4-{2-[2-(1-Cyclohexylmethyl-5,6-difluoro-1H-benzoimidazol-2-yl)-phenyl]-ethyl}-benzoic acid]
90 | O=C(O)c1ccc(CCc2ccccc2-c2nc3ccccc3n2CC2CCCCC2)cc1 [Example 78, 4-{2-[2-(1-Cyclohexylmethyl-1H-benzoimidazol-2-yl)-phenyl]-ethyl}-benzoic acid]
80 | O=C(O)COc1ccc(CCc2ccccc2-c2nc3ccccc3n2CC2CCCCC2)cc1 [Example 79, (4-{2-[2-(1-Cyclohexylmethyl-1H-benzoimidazol-2-yl)-phenyl]-ethyl}-phenoxy)-acetic acid]
30 | c1ccc(-c2nc3ccccc3n2CC2CCCCC2)c(CCc2ccc(-c3nnn[nH]3)cc2)c1 [Example 80, 1-Cyclohexylmethyl-2-(2-{2-[4-(1H-tetrazol-5-yl)-phenyl]-ethyl}-phenyl)-1H-benzoimidazole]
